From patent US20090252754A1, “Vaccines containing the hiv tat protein as an adjuvant for the enhancement of cytotoxic t-cell responses” (priority 2003, published 2009)

Experiments:
[1] = tested on: proteasomes purified from Jurkat cells; experiment: Enzymatic assays of proteasomes purified from Jurkat cells treated with Tat; type: biochemical, human; settings: proteasomes from Jurkat cells treated for 24 h with 1 μg/ml Tat protein vs control cells
Experimental: Cells were lysed with glass beads as previously described (4). Supernatants were ultracentrifuged for 1 h at 100,000 g and loaded into an affinity column containing a matrix derivatised with the MCP21 mAb specific for the α2 subunit of the proteasome (Affinity, Exeter, UK). Proteasomes were eluted with 25 mM Tris-HCl pH 7.5 containing 2 M NaCl, and 0.5 ml fractions were collected. Homogeneity of the eluted material was confirmed by analysis of an aliquot by SDS 12% PAGE and Coomassie blue staining of the gel. Fractions containing proteasomes were combined and dialysed against 25 mM Tris-HCl pH 7.5. Protein concentration was determined using the BCA method (Pierce Chemical, Rockford, Ill.).
The chymotrypsin-like, trypsin-like and post-acidic activities of purified proteasomes were tested using the fluorogenic substrates Suc-LLVY-AMC, Boc-LRR-AMC and Ac-YVAD-AMC, respectively, as previously described (4). Fluorescence was determined by a fluorimeter (Spectrafluor plus, Tecan, Salzburg, Austria). Proteasome activity is expressed as arbitrary fluorescence units.
To investigate whether the differences in subunit composition correlated with differences in enzymatic activity, we analysed the cleavage specificity of equal amounts of proteasomes purified from Jurkat cells treated for 24 h with 1 μg/ml Tat protein or from control cells. […]

[2] = tested on: MIN and MON LCL's (EBV IVT, AVF, YLQ, CLG epitopes); experiment: Cytotoxicity assay of EBV epitope-specific CTLs against LCL targets
Experimental: HLA A11-restricted EBV-specific CTL cultures reacting against the EBNA4-derived [sequence] (SEQ ID NO 280) (IVT) and [sequence] […] (SEQ ID NO 282) (CLG) epitope, corresponding to amino acid 426-434^28, and the Lmp1-derived [sequence] […] The first stimulation was performed in RPMI 1640 medium containing 10% FCS. A second and a third stimulation were performed in the same conditions on day 7 and day 14. Starting from day 8 the medium was supplemented with 10 U/ml rIL-2 (Chiron, Milan, Italy).
Target cells were labelled with Na2^51CrO4 for 90 min at 37° C. Cytotoxicity tests were routinely run at different effector: target ratios in triplicate. Percent specific lysis was calculated as 100×(cpm sample−cpm medium)/(cpm Triton X-100−cpm medium)^27. Spontaneous release was always less than 20%.
To this purpose, the HLA-2 and -A11 positive MIN LCL and the HLA-A2 positive MON LCL, transduced or not with Tat, were tested as target in cytotoxic assays using CTL cultures specific for the IVT, AVF, CLG and YLQ epitopes (FIG. 6).

LMP2 = LMP2 expression in splenocytes of mice treated i.m. with Tat (Western blot); type: in vivo; settings: Balb/c mice, 1 μg i.m., 3 consecutive treatments
Description: Equal amounts of proteins were loaded on a 12% SDS-PAGE gel and electroblotted onto Protran nitrocellulose membranes (Schleicher & Schuell, Keene, Hampshire, USA). The blots were probed with antibodies specific for α2, LMP2, LMP7, MECL1, and PA28α subunits (Affinity, Exeter, UK) and developed by enhanced chemiluminescence (ECL, Amersham Pharmacia Biotech, Uppsala, SW).
Animal use was according to national and institutional guidelines. Seven-to-eight week old female Balb/c mice (Nossan, Milan, Italy) were injected with native monomeric biologically active Tat protein (1 μg) resuspended in degassed sterile PBS. Control mice were injected with oxidised Tat (1 μg) or with PBS alone. Samples (100 μl) were given by intramuscular (i.m.) injections in the quadriceps muscles of the posterior legs. Each experimental group consisted of three mice, and the experiment was repeated twice. Mice were boosted at days 11 and 20 after the first injection. Seven days after the last injection, animals were anaesthetised intraperitoneally (i.p.) with 100 μl of isotonic solution containing 1 mg of Inoketan (Virbac, Milan, Italy), and 200 μg Rompun (Bayer, Milan, Italy) and sacrificed to collect spleens. Mononuclear cells from individual spleens were purified using cells strainers, resuspended in PBS containing 20 mM EDTA, and treated with a red blood cells lysis buffer for 4 minutes at room temperature. […]

[3] = tested on: proteasomes purified from MIN-Tat and MIN-0; experiment: In vitro degradation of CLG+5 epitope precursor by purified proteasomes (HPLC, IFN-γ ELISPOT of fractions); type: biochemical, human
Experimental: 500 μg of synthetic peptide were incubated with 127 μg of purified proteasomes in 300 μl of buffer (25 mM Tris HCL pH 7.4, 5 mM MgCl2, 500 μM EDTA pH 8.0, 1 mM DTT, 2 mM ATP) at 37° C. At the indicated time points, 60 μl of sample were collected and the reaction was stopped by adding 2 volumes of ethanol at 0° C.
Digestion mixtures were centrifuged at 5000 rpm for 5 minutes. 80 μl of supernatant were collected and peptide digests were separated by reverse-phase HPLC at the flow rate of 0.7 ml/min, as follows: linear gradient of 0-100% of solution B (acetonitrile 100% with 0.1% TFA) for 25 min, followed by linear gradient of 0-100% for solution A (water 100% with 0.1% TFA) for 5 min. The fractionation was simultaneously monitored at 210 and 280 nm. […]
Plates were incubated for 24 h at 37° C., 5% CO2 and then washed three times with PBS and three times with washing buffer (PBS 0.05% Tween 20) before 100 μl of biotinylated anti-IFN-γ MAb (1 μg/ml; Endogen, Woburn, Mass.) were added, and incubated at 37° C. for 60 min. […] Wells were washed, and individual IFN-γ producing cells were detected using ABC chromogen kit (Sigma, Saint Louise, Mo.). IFN-γ-secreting T cells were counted by direct visualisation. The number of specific IFN-γ-secreting T cells, expressed as spot-forming cells (SFC) per 10^6 cells, was calculated by subtracting the negative control value. […]

[4] = LCL expressing endogenous Tat vs empty vector
[5] = MIN LCL treated with 0.1 μg/ml Tat protein for 24 hours vs untreated

Tat: HIV-1 Tat protein from HTLV type IIIB isolate, expressed in E. Coli or endogenously in cells; wild type SEQ ID NO 284
chymotryptic-like, tryptic-like and post-acidic activities [1]: all augmented
IVT- and AVF-specific CTL killing [2, 4]: decrease
YLQ- and CLG-specific killing [2, 4]: increase
lysis by YLQ- and CLG-specific CTLs [2, 5]: lysed at higher efficiency
sensitivity to IVT- and AVF-specific CTL killing [2, 5]: less sensitive
LMP2 expression in splenocytes (LMP2): down-regulation
degradation of the CLG+5 peptide precursor ([3]; proteasomes from Tat-expressing cells (MIN-Tat) vs empty vector (MIN-0)): more efficiently
generation of the immunogenic CLG peptide ([3]; proteasomes from Tat-expressing cells, 120 min digests, CLG-specific CTL ELISPOT): generate with more efficiency
